Earlier results in patent US10561602B2 (priority 2015, dated 2020).

Key:
[1] = water and both basic and acidic aqueous solutions
[2] = n-octanol/0.05 M phosphate buffer at pH 7.4

## CC(C)C[C@H](CN)CC(=O)O [Pregabalin, (S)-3-(aminomethyl)-5-methylhexanoic acid]
[1]
  solubility: freely soluble
[2]
  log of the partition coefficient: about −1.35
